Like-named read-outs stand apart in the source and are kept apart here. Where only a bound is given, the exact number is not on record here.

One test concerns the target T1, S1P3 (Homo sapiens, UniProt Q99500).
T1 construct: host or cells: HEK293 (transient transfection)
The test is described as follows: S1P3 Tango β-arrestin recruitment assay in HEK293 cells (Assay 5). The class given is cell-based. Put shortly: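 HEK293 cells transiently expressing S1P3 fused via TEV-cleavable linker to tTA, with β-arrestin2–TEV, treated 16-18 h at 37 °C with compounds (top 10 μM, 10-point 3-fold, 1% DMSO). Luciferase reporter luminescence normalised to DMSO background and 5 μM S1P control as percent activity; EC50 from concentration-response curves.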

The next test has as its target T2, S1P1 (Homo sapiens, UniProt P21453).
T2 construct: host or cells: U2OS
Kind of test: Tango β-arrestin recruitment assay in U2OS cells (Assay 2b). The format is cell-based. Put shortly: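 In this agonist-mode Tango assay, U2OS cells carrying S1P1 and the reporter were serum-starved 48 h, then exposed overnight at 37 °C to compound (10 points, 3-fold, top 1 μM, 1% DMSO). β-Lactamase F460/F530 ratio was normalized to 1 μM S1P, and EC50 was fitted.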

Test [1] deals with T3, hS1PR5 (hEdg8) membrane protein (Homo sapiens, UniProt Q9H228).
T3 construct: expressed in transfected cells; host or cells: CHO
T3 sequence (Q9H228 whole entry): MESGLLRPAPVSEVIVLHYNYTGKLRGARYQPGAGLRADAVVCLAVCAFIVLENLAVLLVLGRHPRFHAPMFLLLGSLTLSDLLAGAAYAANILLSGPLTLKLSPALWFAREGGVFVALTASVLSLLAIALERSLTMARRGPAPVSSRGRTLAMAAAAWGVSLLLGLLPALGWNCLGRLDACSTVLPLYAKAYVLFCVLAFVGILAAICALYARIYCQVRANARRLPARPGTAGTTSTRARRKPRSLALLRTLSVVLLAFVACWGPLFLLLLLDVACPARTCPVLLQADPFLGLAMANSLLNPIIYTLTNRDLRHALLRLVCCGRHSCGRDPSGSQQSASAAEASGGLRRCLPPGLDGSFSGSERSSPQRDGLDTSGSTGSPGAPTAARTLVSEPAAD
Kind of test: hS1P5R GTPγS binding assay (Assay 4). The format is biochemical. The essentials:
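Membranes (5 μg) from CHO cells expressing hS1PR5, incubated 1 h at room temperature with 30 μM GDP, 0.1 nM [35S]GTPγS, 0.25% fatty acid free BSA and serially diluted compound in pH 7.9 Tris buffer with MgCl2. WGA SPA beads added for another 1 h, then bound [35S]GTPγS counted by scintillation.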

Test [2] has as its target T4, hS1P1R (hEdg1) membrane protein (Homo sapiens, UniProt P21453).
T4 construct: purchased Lonza
Kind of test: hS1P1R GTPγS binding assay (Assay 3a). The class given is biochemical. The essentials:
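Membranes (4 μg) expressing hS1P1R incubated 1 h at room temperature with 30 μM GDP, 0.1 nM [^35S]GTPγS, 0.25% fatty acid free BSA and serially diluted agonist in Tris-HCl pH 7.9/NaCl/MgCl2/EGTA buffer. Bound [^35S]GTPγS captured on WGA SPA beads (further 1 h) and counted.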

Where [3] appears, read: * = rEC50 measured rather than EC50, read-out: Assay 5 rEC50 (relative EC50, cells marked *).

T4 sequence (P21453 whole entry): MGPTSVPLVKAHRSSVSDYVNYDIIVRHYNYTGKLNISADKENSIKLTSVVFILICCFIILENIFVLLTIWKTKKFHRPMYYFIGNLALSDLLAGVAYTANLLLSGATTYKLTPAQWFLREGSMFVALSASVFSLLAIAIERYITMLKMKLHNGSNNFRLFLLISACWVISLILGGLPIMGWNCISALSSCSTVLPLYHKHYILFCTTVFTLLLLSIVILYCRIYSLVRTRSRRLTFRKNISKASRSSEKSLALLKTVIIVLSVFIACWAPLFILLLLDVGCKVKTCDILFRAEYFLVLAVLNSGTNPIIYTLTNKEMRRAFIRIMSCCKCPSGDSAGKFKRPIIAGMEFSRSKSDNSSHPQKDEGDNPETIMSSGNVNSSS
T1 sequence (P32121 whole entry): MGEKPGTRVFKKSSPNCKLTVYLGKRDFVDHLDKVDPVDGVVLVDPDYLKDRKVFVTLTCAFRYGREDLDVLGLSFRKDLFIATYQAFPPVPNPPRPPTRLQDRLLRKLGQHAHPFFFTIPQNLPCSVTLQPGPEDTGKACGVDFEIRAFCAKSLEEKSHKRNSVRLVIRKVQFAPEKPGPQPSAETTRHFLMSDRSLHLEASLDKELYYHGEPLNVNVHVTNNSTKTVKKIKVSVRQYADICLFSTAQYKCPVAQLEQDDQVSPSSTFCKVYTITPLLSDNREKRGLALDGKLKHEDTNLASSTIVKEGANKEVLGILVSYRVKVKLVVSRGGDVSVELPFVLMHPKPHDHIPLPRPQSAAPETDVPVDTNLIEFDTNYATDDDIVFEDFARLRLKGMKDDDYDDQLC
T1 sequence (Q99500 whole entry): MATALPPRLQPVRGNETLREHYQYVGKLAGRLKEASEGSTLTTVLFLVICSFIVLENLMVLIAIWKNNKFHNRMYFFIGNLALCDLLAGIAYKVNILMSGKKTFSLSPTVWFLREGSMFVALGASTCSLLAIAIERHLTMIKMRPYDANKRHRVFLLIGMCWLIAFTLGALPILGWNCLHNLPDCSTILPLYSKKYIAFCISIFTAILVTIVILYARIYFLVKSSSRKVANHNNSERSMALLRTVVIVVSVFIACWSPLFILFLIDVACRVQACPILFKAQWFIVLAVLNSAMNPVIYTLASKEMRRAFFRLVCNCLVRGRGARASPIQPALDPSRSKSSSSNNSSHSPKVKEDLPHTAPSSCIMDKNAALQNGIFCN
T2 sequence (P32121 whole entry): as the sequence (P32121 whole entry) above
T2 sequence (P21453 whole entry): as the sequence (P21453 whole entry) above

In the case of `CC(C)Oc1ccc(-c2nnc(-c3cc(F)c(OC[C@@H](N)[C@H](C)O)cc3Cl)s2)cc1C#N` [Entry 55, 5-[5-(4-{[(2R,3S)-2-amino-3-hydroxybutyl]oxy}-2-chloro-5-fluorophenyl)-1,3,4-thiadiazol-2-yl]-2-[(1-methylethyl)oxy]benzonitrile], the EC50 at S1P3 (read-out: Assay 5 EC50) is at most 250 nM; on S1P1 (read-out: Assay 2b EC50), at most 10 nM; in test [1], at most 10 nM; in test [2], at most 10 nM.

On to `CC(C)Nc1ccc(-c2nnc(-c3cc(F)c(OC[C@H](N)[C@H](C)O)cc3Cl)s2)cn1` [Entry 56, (2S,3S)-3-amino-4-{[5-chloro-2-fluoro-4-(5-{6-[(1-methylethyl)amino]pyridin-3-yl}-1,3,4-thiadiazol-2-yl)phenyl]oxy}butan-2-ol], for which the concentration for a half-maximal effect (EC50) on S1P3 (read-out: Assay 5 EC50) is over 10000 nM; on S1P1 (read-out: Assay 2b EC50) it was 250 to 2800 nM; in test [1], over 10000 nM; in test [2], 250 to 2800 nM.

Take `CC(C)Nc1cc(-c2nnc(-c3cc(F)c(OC[C@H](N)[C@@H](C)O)cc3Cl)s2)ccn1` [Entry 57]: the EC50 on S1P3 (read-out: Assay 5 EC50) is over 10000 nM; on S1P1 (read-out: Assay 2b EC50), 50 to 250 nM; in test [1], 250 to 2800 nM; in test [2], 50 to 250 nM.

As to `CC(C)Nc1ccc(-c2nnc(-c3cc(F)c(OC[C@@H](N)[C@H](C)O)cc3Cl)s2)cn1` [Entry 59, (2S,3R)-3-amino-4-{[5-chloro-2-fluoro-4-(5-{6-[(1-methylethyl)amino]pyridin-3-yl}-1,3,4-thiadiazol-2-yl)phenyl]oxy}butan-2-ol], the concentration for a half-maximal effect (EC50) on S1P3 (read-out: Assay 5 EC50) is over 10000 nM; on S1P1 (read-out: Assay 2b EC50), at most 10 nM; in test [1] it was 250 to 2800 nM; in test [2] it was 250 to 2800 nM.

Turning to `Cc1cc(-c2nnc(-c3cc(F)c(OC[C@H](N)[C@@H](C)O)cc3Cl)s2)ccc1OC(C)C` [Entry 60, (2R,3S)-3-amino-4-{[5-chloro-2-fluoro-4-(5-{3-methyl-4-[(1-methylethyl)oxy]phenyl}-1,3,4-thiadiazol-2-yl)phenyl]oxy}butan-2-ol], the EC50 on S1P3 (read-out: Assay 5 EC50) is over 10000 nM; at S1P1 (read-out: Assay 2b EC50), 10 to 50 nM; in test [1], 10 to 50 nM; in test [2], at most 10 nM.

Take `Cc1cc(-c2nnc(-c3cc(F)c(OC[C@H](N)[C@H](C)O)cc3Cl)s2)ccc1OC(C)C` [Entry 61, (2S,3S)-3-amino-4-{[5-chloro-2-fluoro-4-(5-{3-methyl-4-[(1-methylethyl)oxy]phenyl}-1,3,4-thiadiazol-2-yl)phenyl]oxy}butan-2-ol]: the concentration giving a half-maximal response (EC50) is over 10000 nM at S1P3 (read-out: Assay 5 EC50), 50 to 250 nM at S1P1 (read-out: Assay 2b EC50), 10 to 50 nM in test [1] and at most 10 nM in test [2].

Consider `Cc1cc(-c2nnc(-c3cc(F)c(OC[C@H](N)[C@H](C)O)cc3Cl)s2)cc(NC(C)C)n1` [Entry 63, (2S,3S)-3-amino-4-{[5-chloro-2-fluoro-4-(5-{2-methyl-6-[(1-methylethyl)amino]pyridin-4-yl}-1,3,4-thiadiazol-2-yl)phenyl]oxy}butan-2-ol], for which the EC50 at S1P3 (read-out: Assay 5 EC50) is over 250 nM; at S1P1 (read-out: Assay 2b EC50), 10 to 50 nM; in test [1], 10 to 50 nM; in test [2], at most 10 nM.

Regarding `CC(C)Oc1ccc(-c2nnc(-c3cc(F)c(OC[C@@H](N)[C@H](C)OP(=O)(O)O)cc3Cl)s2)cc1Cl` [Entry 64, (1S,2R)-2-amino-3-{[5-chloro-4-(5-{3-chloro-4-[(1-methylethyl)oxy]phenyl}-1,3,4-thiadiazol-2-yl)-2-fluorophenyl]oxy}-1-methylpropyl dihydrogen phosphate], the EC50 on S1P3 (setting [3]) was at most 250 nM; on S1P1 (read-out: Assay 2b EC50), at most 10 nM; in test [1] it was at most 10 nM; in test [2], at most 10 nM.

As for `Cc1cc(-c2nnc(-c3cc(F)c(OC[C@H](N)[C@@H](C)O)cc3Cl)s2)cnc1NC(C)C` [Entry 65, (2R,3S)-3-amino-4-{[5-chloro-2-fluoro-4-(5-{5-methyl-6-[(1-methylethyl)amino]pyridin-3-yl}-1,3,4-thiadiazol-2-yl)phenyl]oxy}butan-2-ol], the concentration giving a half-maximal response (EC50) at S1P3 (read-out: Assay 5 EC50) was over 10000 nM; on S1P1 (read-out: Assay 2b EC50), 10 to 50 nM; in test [1] it was 2800 to 10000 nM; in test [2], 50 to 250 nM.

As for `Cc1cc(-c2nnc(-c3cc(F)c(OC[C@@H](N)[C@@H](C)O)cc3Cl)s2)cnc1NC(C)C` [Entry 67, (2R,3R)-3-amino-4-{[5-chloro-2-fluoro-4-(5-{5-methyl-6-[(1-methylethyl)amino]pyridin-3-yl}-1,3,4-thiadiazol-2-yl)phenyl]oxy}butan-2-ol], the concentration giving a half-maximal response (EC50) at S1P3 (read-out: Assay 5 EC50) is over 10000 nM; on S1P1 (read-out: Assay 2b EC50), at most 10 nM; in test [1], 250 to 2800 nM; in test [2] it was 10 to 50 nM.

`CC(C)Nc1ccc(-c2nnc(-c3cc(F)c(OC[C@@H](N)[C@@H](C)O)cc3Cl)s2)cn1` [Entry 68, (2R,3R)-3-amino-4-{[5-chloro-2-fluoro-4-(5-{6-[(1-methylethyl)amino]pyridin-3-yl}-1,3,4-thiadiazol-2-yl)phenyl]oxy}butan-2-ol]: the 50% effective concentration (EC50) on S1P3 (read-out: Assay 5 EC50) was over 10000 nM; at S1P1 (read-out: Assay 2b EC50), at most 10 nM; in test [1], 250 to 2800 nM; in test [2], 50 to 250 nM.

In the case of `CC(C)Oc1ccc(-c2nnc(-c3cc(F)c(OC[C@H](N)[C@H](C)OP(=O)(O)O)cc3Cl)s2)cc1Cl` [Entry 69, (1S,2S)-2-amino-3-{[5-chloro-4-(5-{3-chloro-4-[(1-methylethyl)oxy]phenyl}-1,3,4-thiadiazol-2-yl)-2-fluorophenyl]oxy}-1-methylpropyl dihydrogen phosphate], the concentration for a half-maximal effect (EC50) at S1P3 (setting [3]) is over 250 nM; on S1P1 (read-out: Assay 2b EC50), at most 10 nM; in test [1], 10 to 50 nM; in test [2], at most 10 nM.

For `CC(C)Oc1ccc(-c2nnc(-c3cc(F)c(OC[C@@H](N)[C@@H](C)OP(=O)(O)O)cc3Cl)s2)cc1Cl` [Entry 70, (1R,2R)-2-amino-3-{[5-chloro-4-(5-{3-chloro-4-[(1-methylethyl)oxy]phenyl}-1,3,4-thiadiazol-2-yl)-2-fluorophenyl]oxy}-1-methylpropyl dihydrogen phosphate], the 50% effective concentration (EC50) was at most 250 nM on S1P3 (read-out: Assay 5 EC50), at most 10 nM on S1P1 (read-out: Assay 2b EC50), at most 10 nM in test [1] and at most 10 nM in test [2].

Turning to `CC(C)Oc1ccc(-c2nnc(-c3cc(F)c(OC[C@@H](N)[C@H](C)O)cc3Cl)s2)cc1Cl` [Entry 71, (2S,3R)-3-amino-4-{[5-chloro-4-(5-{3-chloro-4-[(1-methylethyl)oxy]phenyl}-1,3,4-thiadiazol-2-yl)-2-fluorophenyl]oxy}butan-2-ol], the EC50 at S1P3 (read-out: Assay 5 EC50) was at most 250 nM; on S1P1 (* = rEC50 measured rather than EC50, read-out: Assay 2b rEC50 (relative EC50, cells marked *)), at most 10 nM; in test [1], 10 to 50 nM; in test [2], at most 10 nM.

As to `CC(C)Oc1ccc(-c2nnc(-c3cc(F)c(OC[C@@H](N)[C@@H](C)O)cc3Cl)s2)cc1Cl` [Entry 74, (2R,3R)-3-amino-4-{[5-chloro-4-(5-{3-chloro-4-[(1-methylethyl)oxy]phenyl}-1,3,4-thiadiazol-2-yl)-2-fluorophenyl]oxy}butan-2-ol], the EC50 is over 250 nM on S1P3 (read-out: Assay 5 EC50), at most 10 nM on S1P1 (read-out: Assay 2b EC50), 10 to 50 nM in test [1] and at most 10 nM in test [2].

For `CC(C)Nc1ccc(-c2nnc(-c3cc(F)c(OC[C@H](N)CO)cc3Cl)s2)cn1` [Entry 75, (2R)-2-amino-3-{[5-chloro-2-fluoro-4-(5-{6-[(1-methylethyl)amino]pyridin-3-yl}-1,3,4-thiadiazol-2-yl)phenyl]oxy}propan-1-ol], the concentration for a half-maximal effect (EC50) on S1P3 (read-out: Assay 5 EC50) was over 10000 nM; at S1P1 (read-out: Assay 2b EC50) it was 10 to 50 nM; in test [1], 250 to 2800 nM; in test [2] it was 250 to 2800 nM.

With `CCOc1ccc(-c2nnc(-c3cc(F)c(OC[C@H](N)CO)cc3Cl)s2)cc1C#N` [Entry 76, 5-[5-(4-{[(2R)-2-amino-3-hydroxyporpyl]oxy}-2-chloro-5-fluorophenyl)-1,3,4-thiadiazol-2-yl]-2-(ethyloxy)benzonitrile], the concentration giving a half-maximal response (EC50) was over 10000 nM at S1P3 (read-out: Assay 5 EC50), 10 to 50 nM at S1P1 (read-out: Assay 2b EC50), 50 to 250 nM in test [1] and at most 10 nM in test [2].

As for `COCCOc1ccc(-c2nnc(-c3cc(F)c(OC[C@H](N)CO)cc3Cl)s2)cc1C#N` [Entry 78, 5-[5-(4-{[(2R)-2-amino-3-hydroxyporpyl]oxy}-2-chloro-5-fluorophenyl)-1,3,4-thiadiazol-2-yl]-2-{[2-(methyloxy)ethyl]oxy}benzonitrile], the concentration for a half-maximal effect (EC50) at S1P3 (read-out: Assay 5 EC50) was over 10000 nM; at S1P1 (read-out: Assay 2b EC50), 10 to 50 nM; in test [1], 250 to 2800 nM; in test [2], 50 to 250 nM.

With `CC(C)Oc1ccc(-c2nnc(-c3cc(F)c(OC[C@H](N)COP(=O)(O)O)cc3Cl)s2)cc1C#N` [Entry 79, (2S)-2-amino-3-{[5-chloro-4-(5-{3-cyano-4-[(1-methylethyl)oxy]phenyl}-1,3,4-thiadiazol-2-yl)-2-fluorophenyl]oxy}propyl dihydrogen phosphate], the half-maximal effective concentration (EC50) was at most 250 nM at S1P3 (read-out: Assay 5 EC50), at most 10 nM on S1P1 (read-out: Assay 2b EC50), at most 10 nM in test [1] and at most 10 nM in test [2].

The values are drawn from patent US20100249071A1, “Modulators of S1P and Methods of Making And Using” (Exelixis, Inc., priority 2009, published 2010).
